In publication PMC5297809, “Design, Synthesis and Antifungal Activity Evaluation of New Thiazolin-4-ones as Potential Lanosterol 14α-Demethylase Inhibitors” (International Journal of Molecular Sciences, 2017):
Converted amounts (≈) assume the structure as drawn.

Assays:
[1] = tested on: Candida albicans ATCC 18804; assay: broth microdilution MIC/MFC; format: cell-based; conditions: for MFC: ATCC18804, C. albicans ATCC 18804, read-out: MFC; for MIC: ATCC18804, C. albicans ATCC 18804, read-out: MIC
four strains of Candida = assay: broth microdilution MIC/MFC, summary over the four strains; format: cell-based; conditions: for MFC / MIC: summary over two C. albicans, one C. krusei and one C. parapsilosis strain; for fold more active than fluconazole: anti-Candida activity
[2] = tested on: Candida albicans ATCC 10231; assay: cup-plate agar diffusion method, inhibition zone diameters; format: cell-based; conditions: ATCC10231, C. albicans ATCC 10231, 1 mg/mL in DMSO, 20 µg/well, mean of three ± SD, read-out: inhibition zone diameters
[3] = tested on: Candida albicans ATCC 10231; assay: broth microdilution MIC/MFC; format: cell-based; conditions: for MFC: ATCC10231, C. albicans ATCC 10231, read-out: MFC; for MIC: ATCC10231, C. albicans ATCC 10231, read-out: MIC
Candida krusei ATCC 6258 = assay: broth microdilution MIC/MFC; format: cell-based; conditions: Pichia kudriavzevii, ATCC6258, C. krusei ATCC 6258; for MFC: read-out: MFC; for MIC: read-out: MIC
[4] = tested on: Candida parapsilosis ATCC 22019; assay: broth microdilution MIC/MFC; format: cell-based; conditions: Lodderomyces parapsilosis, ATCC22019, C. parapsilosis ATCC 22019; for MFC: read-out: MFC; for MIC: read-out: MIC
[5] = lipophilicity by RP-TLC with PCA; format: physicochemical; set-up: key to P1 / P2: PCA scores of compounds computed from Rf data; conditions: for RM0: RP-TLC C18, water-i-propanol 45-65%, intercept, RM extrapolated to 0% organic modifier (lipophilicity); for b: RP-TLC regression slope (specific hydrophobic surface area); for P1: score of first principal component of Rf data, low P1 = highly lipophilic; for P2: score of second principal component of Rf data
Protocol: The lipophilic character of twenty thiazolin-4-one derivatives was assessed with the help of the principal component analysis (PCA) based on the reversed-phase thin-layer chromatography (RP-TLC) data.
The chromatographic behavior of the test compounds was studied on C18 silicagel bonded 60 RP-180F254S TLC (20 × 20 cm) plates, purchased from Merck (Darmstadt, Germany). The test compounds’ solutions (1 mg/mL) were prepared by dissolving the samples in DMSO (Merck, Darmstadt, Germany). The plates were manually spotted with 3 µL aliquots of each solution at 10 mm from the base and 5 mm from the edge of the plate, leaving a 10 mm distance between successive spots, and developed by the ascending technique, without preconditioning. Chromatography was performed in a normal developing chamber at room temperature (~24 °C), the developing distance being of 9 cm. The solvent system used as mobile phase consisted of a water-i-propanol mixture, with a varying content of organic modifier (i-propanol—concentration ranged between 45% and 65% (v/v), with 5% vol. increments). Before the development, the chamber was saturated with the mobile phase for 15 min. After being developed, the dried plates were visually inspected under the UV light (λ = 254 nm), each spot was clearly marked and its distance was manually measured in order to calculate the Rf values. The spots of the compounds 3f, 10 and 11 were not visible in UV light, thus their Rf values could not be calculated, therefore they were excluded from this assay.
Based on the Rf values, one of the most common lipophilic estimator, meaning the isocratic retention factor RM was calculated using the Bate-Smith and Westall equations [40].
RP-TLC provides retention data in the form of Rf and the corresponding RM values (Equation (2)) that can be used to derive chromatographic descriptors for estimating lipophilicity: RM0, b and PCA. The most popular lipophilicity descriptor estimated by this method is RM and it is derived from the retention factor (Rf) according to the following formula: RM = log[(1/Rf) − 1] (2) where Rf is calculated on the basis of migration distance of a compound and the solvent front.
As RM value (related to the molecular lipophilicity) depends linearly on the concentration of the organic modifier in the mobile phase, the value is extrapolated to pure water as mobile phase. In order to increase the accuracy of the lipophilicity determination, the RM values extrapolated to zero organic modifier concentration (RM0) have been calculated from the linear correlation between the RM values and the concentration of the organic component of the mobile phase: RM = RM0 + bc (3) where RM0 is the lipophilicity estimation parameter, RM is the retention of the solute, b is the slope, and c is the concentration of the mobile phase organic modifier (i-propanol).
The intercept (RM0) in Equation (3) represents the extrapolated RM values at 0% organic modifier.
PCA was performed on the obtained retention parameters with the help of XL-STAT extension. […] PCA gave the coordinates (scores) of the studied compounds and also the loadings of the variables (solvents) on the principal components.

| MIC [1] [µg/mL] | MIC [3] [µg/mL] | MIC (Candida krusei ATCC 6258) [µg/mL] | MIC [4] [µg/mL] | Compound | MFC [1] [µg/mL] | MFC (four strains of Candida) [µg/mL] | MIC (four strains of Candida) [µg/mL] | zone of inhibition at 1000 µg/mL [2] [mm] | MFC [3] [µg/mL] | MFC (Candida krusei ATCC 6258) [µg/mL] | MFC [4] [µg/mL] | melting point [°C] | fold more active than fluconazole (four strains of Candida) | RM0 [5] | b [5] | P1 [5] | P2 [5] |
| --- | --- | --- | --- | --- | --- | --- | --- | --- | --- | --- | --- | --- | --- | --- | --- | --- | --- |
| 15.6 (≈ 51 µM) | 15.6 (≈ 51 µM) | 15.6 (≈ 51 µM) | 7.81 (≈ 25.5 µM) | OC(Cn1cncn1)(Cn1cncn1)c1ccc(F)cc1F [Fluconazole, reference compound] | 31.2 (≈ 102 µM) | 15.6 to 31.2 (≈ 51 to 102 µM) | 7.81 to 15.6 (≈ 25.5 to 51 µM) | 22 ± 0.5 | 31.2 (≈ 102 µM) | 31.2 (≈ 102 µM) | 15.6 (≈ 51 µM) | – | – | – | – | – | – |
| 7.81 (≈ 14.7 µM) | 7.81 (≈ 14.7 µM) | 7.81 (≈ 14.7 µM) | 3.9 (≈ 7.34 µM) | CC(=O)N1CCN(c2ccc(OCC3COC(Cn4ccnc4)(c4ccc(Cl)cc4Cl)O3)cc2)CC1 (stereo not shown) [Ketoconazole, reference compound] | 15.6 (≈ 29.4 µM) | 7.81 to 15.6 (≈ 14.7 to 29.4 µM) | 3.9 to 7.81 (≈ 7.34 to 14.7 µM) | – | 15.6 (≈ 29.4 µM) | 15.6 (≈ 29.4 µM) | 7.81 (≈ 14.7 µM) | – | – | – | – | – | – |
| 0.48 (≈ 1.65 µM) | 0.48 (≈ 1.65 µM) | 0.48 (≈ 1.65 µM) | 0.24 (≈ 0.827 µM) | C=CCNC1=NC(=O)C(=Cc2ccc(O)c(OC)c2)S1 [Compound 3g, 2-(Allylamino)-5-(4-hydroxy-3-methoxybenzylidene)thiazol-4(5H)-one] | 0.97 (≈ 3.34 µM) | – | – | 22 ± 0.2 | 1.95 (≈ 6.72 µM) | 1.95 (≈ 6.72 µM) | 0.48 (≈ 1.65 µM) | 240 | – | 0.6734 | −1.9546 | 3.365 | 0.453 |

| Compound | MIC [1] [µg/mL] | MIC [3] [µg/mL] | MIC (Candida krusei ATCC 6258) [µg/mL] | MIC [4] [µg/mL] | MFC [1] [µg/mL] | MFC (four strains of Candida) [µg/mL] | MIC (four strains of Candida) [µg/mL] | zone of inhibition at 1000 µg/mL [2] [mm] | MFC [3] [µg/mL] | MFC (Candida krusei ATCC 6258) [µg/mL] | MFC [4] [µg/mL] | melting point [°C] | fold more active than fluconazole (four strains of Candida) | RM0 [5] | b [5] | P1 [5] | P2 [5] |
| --- | --- | --- | --- | --- | --- | --- | --- | --- | --- | --- | --- | --- | --- | --- | --- | --- | --- |
| O=C1N=C(Nc2cccc3ccccc23)SC1=Cc1ccc(Cl)cc1Cl [Compound 9b, 5-(2,4-Dichlorobenzylidene)-2-(naphthalen-1-ylamino)thiazol-4(5H)-one] | 0.015 (≈ 0.0376 µM) | 0.015 (≈ 0.0376 µM) | 0.015 (≈ 0.0376 µM) | 0.015 (≈ 0.0376 µM) | 0.03 (≈ 0.0751 µM) | 0.015 (≈ 0.0376 µM) | 0.015 (≈ 0.0376 µM) | 18 ± 0.2 | 0.03 (≈ 0.0751 µM) | 0.015 (≈ 0.0376 µM) | 0.015 (≈ 0.0376 µM) | 185 | over 500 fold | 2.9283 | −4.3675 | −2.876 | 0.232 |
| CNC1=NC(=O)CS1 [Compound 10, 2-(methylamino)thiazol-4(5H)-one] | 0.015 (≈ 0.115 µM) | 0.015 (≈ 0.115 µM) | 0.015 (≈ 0.115 µM) | 0.015 (≈ 0.115 µM) | 0.03 (≈ 0.23 µM) | 0.015 (≈ 0.115 µM) | 0.015 (≈ 0.115 µM) | 22 ± 1 | 0.03 (≈ 0.23 µM) | 0.015 (≈ 0.115 µM) | 0.015 (≈ 0.115 µM) | – | over 500 fold | – | – | – | – |
